Test results from patent publication EP0595557A1, “New substituted azetidinones as anti-inflammatory and antidegenerative agents” (MERCK & CO. INC., priority 1992, dated 1994).

Each compound was assayed against T1, Human Polymorphonuclear Leukocyte Elastase (Homo sapiens, UniProt P08246) (assay: Enzyme assay for inhibition of human polymorphonuclear leukocyte elastase via hydrolysis of Boc-AAPAN or Boc-AAPVN). Settings: pH 7.5, second order rate constant for inactivation of the enzyme, expressed to the nearest thousand, read-out: Kobs/[I].
T1 construct: Crude extract of human polymorphonuclear leukocytes (PMN) containing elastase activity; from tissue; host or cells: human polymorphonuclear leukocytes (crude extract)
T1 sequence (P08246 30-267): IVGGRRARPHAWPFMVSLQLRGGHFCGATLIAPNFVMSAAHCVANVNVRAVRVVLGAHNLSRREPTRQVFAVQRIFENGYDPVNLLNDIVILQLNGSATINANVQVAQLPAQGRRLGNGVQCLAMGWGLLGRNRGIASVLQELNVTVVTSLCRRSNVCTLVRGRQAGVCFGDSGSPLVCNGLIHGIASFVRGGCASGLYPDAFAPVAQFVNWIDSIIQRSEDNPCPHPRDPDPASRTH
Assay type: biochemical
Summary of the method: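 Crude human PMN extract as enzyme source, with 0.2 mM Boc-AAPAN in 0.05M TES buffer pH 7.5. Inhibitors in DMSO were added to substrate before the extract, and rate was followed as ΔOD/min at 410 mµ. Values are kobs/I, the second-order inactivation rate constant (per mole per second).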
In the case of CCC[C@@H](NC(=O)N1C(=O)C(CC)(CC)[C@@H]1Oc1ccc(C(=O)N2CCOCC2)cc1)c1ccc(C(=O)N2CCOCC2)cc1 [Compound 280], the kinact/KI is reported as 577000 M⁻¹ s⁻¹.
Work on CCC[C@@H](NC(=O)N1C(=O)C(CC)(CC)[C@@H]1Oc1ccc(CC(=O)N2CCOCC2)cc1)c1ccc(C(=O)O)cc1 [Compound 281] yielded a kinact/KI of 62000 M⁻¹ s⁻¹.
With CCC[C@@H](NC(=O)N1C(=O)C(CC)(CC)[C@@H]1Oc1ccc(CC(=O)N2CCOCC2)cc1)c1ccc(C(=O)OCCN(C)C)cc1 [Compound 282] the kinact/KI was 421000 M⁻¹ s⁻¹.
With CCC[C@@H](NC(=O)N1C(=O)C(CC)(CC)[C@@H]1Oc1ccc(CC(=O)N2CCOCC2)cc1)c1ccc(C(=O)N(C)CCN(C)C)cc1 [Compound 283] the kinact/KI was 393000 M⁻¹ s⁻¹.
CCC[C@@H](NC(=O)N1C(=O)C(CC)(CC)[C@@H]1Oc1ccc(CC(=O)N(C)CCN(C)C)cc1)c1ccc(O)cc1 [Compound 284] showed a kinact/KI of 309000 M⁻¹ s⁻¹.
Work on CCC[C@@H](NC(=O)N1C(=O)C(CC)(CC)[C@@H]1Oc1ccc(C(=O)N(C)CCN(C)C)cc1)c1ccc(C(=O)N(C)C)cc1 [Compound 286] yielded a kinact/KI of 551000 M⁻¹ s⁻¹.
In the case of CCC[C@@H](NC(=O)N1C(=O)C(CC)(CC)[C@@H]1Oc1ccc(C(=O)N(C)CCN(C)C)cc1)c1ccc(C(=O)O)cc1 [Compound 287], the kinact/KI is reported as 113000 M⁻¹ s⁻¹.
Work on CCC[C@@H](NC(=O)N1C(=O)C(CC)(CC)[C@@H]1Oc1ccc(C(=O)N(C)CCN(C)C)cc1)c1ccc(CO)cc1 [Compound 288] yielded a kinact/KI of 854000 M⁻¹ s⁻¹.
Compound CCC[C@@H](NC(=O)N1C(=O)C(CC)(CC)[C@@H]1Oc1ccc(CC(=O)N(C)CCN(C)C)cc1)c1ccc(OC)cc1 [Compound 289] has a kinact/KI of 754000 M⁻¹ s⁻¹.
CCC[C@@H](NC(=O)N1C(=O)C(CC)(CC)[C@@H]1Oc1ccc(C(=O)N(C)CCN(C)C)cc1)c1ccc(OC)cc1 [Compound 290] gave a kinact/KI of 1.01e+06 M⁻¹ s⁻¹.
CCC[C@@H](NC(=O)N1C(=O)C(CC)(CC)[C@@H]1Oc1ccc(C(=O)N(C)CCN(C)C)cc1)c1cccc(OC)c1 [Compound 291] showed a kinact/KI of 1.75e+06 M⁻¹ s⁻¹.
CCC[C@@H](NC(=O)N1C(=O)C(CC)(CC)[C@@H]1Oc1ccc(CC(=O)N2CCOCC2)cc1)c1ccc(C)c(COC(=O)N(CC)CC)c1 [Compound 292] was tested, and the kinact/KI was 807000 M⁻¹ s⁻¹.
For CCC[C@@H](NC(=O)N1C(=O)C(CC)(CC)[C@@H]1Oc1ccc(CC(=O)N(CC)CC)cc1)c1ccc(C)c(C(=O)N(CCC)CCC)c1 [Compound 293], the kinact/KI was 457000 M⁻¹ s⁻¹.
In the case of CCC[C@@H](NC(=O)N1C(=O)C(CC)(CC)[C@@H]1Oc1ccc(CC(=O)N2CCOCC2)cc1)c1ccc(C)c(C(=O)N(CCC)CCC)c1 [Compound 294], the kinact/KI is reported as 255000 M⁻¹ s⁻¹.
CCC[C@@H](NC(=O)N1C(=O)C(CC)(CC)[C@@H]1Oc1ccc(C(=O)N(C)CCN(C)C)cc1)c1ccc(C#N)cc1 [Compound 295] gave a kinact/KI of 846000 M⁻¹ s⁻¹.
In the case of CCC[C@@H](NC(=O)N1C(=O)C(CC)(CC)[C@@H]1Oc1ccc(C(=O)N(C)CCN(C)Cc2ccccc2)cc1)c1ccc(OCC)cc1 [Compound 296], the kinact/KI is reported as 776000 M⁻¹ s⁻¹.
Compound CCC[C@@H](NC(=O)N1C(=O)C(CC)(CC)[C@@H]1Oc1ccc(C(=O)N2CCN(C)CC2)cc1)c1ccc(OC)cc1 [Compound 298] has a kinact/KI of 1.84e+06 M⁻¹ s⁻¹.
CCC[C@@H](NC(=O)N1C(=O)C(CC)(CC)[C@@H]1Oc1ccc(C(=O)N(C)CCN(C)C)cc1)c1ccc(Cl)cc1 [Compound 299] was tested, and the kinact/KI was 1.48e+06 M⁻¹ s⁻¹.
For CCC[C@@H](NC(=O)N1C(=O)C(CC)(CC)[C@@H]1Oc1ccc(C(=O)N(C)CCN(CC)CC)cc1)c1ccc(Cl)cc1 [Compound 300], the kinact/KI was 1.28e+06 M⁻¹ s⁻¹.
In the case of CCC[C@@H](NC(=O)N1C(=O)C(CC)(CC)[C@@H]1Oc1ccc(C(=O)N(C)CCN(C(C)C)C(C)C)cc1)c1ccc(Cl)cc1 [Compound 301], the kinact/KI is reported as 1.5e+06 M⁻¹ s⁻¹.
CCC[C@@H](NC(=O)N1C(=O)C(CC)(CC)[C@@H]1Oc1ccc(C(=O)N(C)CCN(C)Cc2ccccc2)cc1)c1ccc(Cl)cc1 [Compound 302] was tested, and the kinact/KI was 1.46e+06 M⁻¹ s⁻¹.

Same assay, conditions: second order rate constant for inactivation of the enzyme, expressed to the nearest thousand; pH 7.5
With CCC[C@@H](NC(=O)N1C(=O)C(CC)(CC)[C@@H]1Oc1ccc(CC(=O)N(C)CCN(C)C)cc1)c1ccc(OC)cc1 [Compound 285] the “Kobs/[I]” value was 566,000 per mole per second.
